Test results: the supplement of paper PMC12137928
Structures can show the parent of a compound that is named as a salt.

Experiments:
[1] = test system: HCT116; conditions: 72 h
In short: (§1)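 HCT116 cells were seeded at 250 per well in 1536-well plates with 5 h allowed for attachment. CellTiter-Glo luminescence was normalized against vehicle (0%) and positive control (-100%) before pattern correction. The IC50 and maximal efficacy figures derive from four-parameter Hill fits.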

[2] = test system: HCT116; assay: efficacy (maximum % inhibition of viability vs DMSO); higher = more cytotoxic; conditions: 72 h
In short: as §1

IC50 cell viability ([1]; ICRF193 0 nM)	IC50 cell viability ([1]; ICRF193 200 nM)	Structure (SMILES)	efficacy ([2]; ICRF193 0 nM)	efficacy ([2]; ICRF193 200 nM)
0.0103 µM	0.0146 µM	CC(=O)O[C@@]12CO[C@@H]1C[C@H](O)[C@@]1(C)C(=O)[C@H](O)C3=C(C)[C@@H](OC(=O)[C@H](O)[C@@H](NC(=O)OC(C)(C)C)c4ccccc4)C[C@@](O)([C@@H](OC(=O)c4ccccc4)[C@H]21)C3(C)C [Docetaxel]	60.8%	56.5%
20.6 µM	29.1 µM	CN(C)CC/C=C1\c2ccccc2CSc2ccccc21 [Dosulepin hydrochloride]	67.8%	69.1%
29.1 µM	18.3 µM	COc1cc2nc(N3CCN(C(=O)C4COc5ccccc5O4)CC3)nc(N)c2cc1OC (stereo not given) [Doxazosin mesylate]	106%	95.6%
16.4 µM	23.1 µM	C[C@H]1c2cccc(O)c2C(=O)C2=C(O)[C@]3(O)C(=O)C(C(N)=O)=C(O)[C@@H](N(C)C)[C@@H]3[C@@H](O)[C@@H]21 [Doxycycline]	41.6%	62.7%
20.6 µM	29.1 µM	CCCCc1oc2ccc(NS(C)(=O)=O)cc2c1C(=O)c1ccc(OCCCN(CCCC)CCCC)cc1 [Dronedarone hydrochloride]	115%	68.2%
18.3 µM	23.1 µM	C[C@]12CCC(=O)C=C1[C@@H]1C[C@@H]1[C@H]1[C@@H]3[C@@H]4C[C@@H]4[C@@]4(CCC(=O)O4)[C@@]3(C)CC[C@@H]12 [Drospirenone]	51.3%	49.1%
18.3 µM	20.6 µM	CNCC[C@H](Oc1cccc2ccccc12)c1cccs1 [Duloxetine hydrochloride]	93%	105%
> 45.8 µM	20.6 µM	CC(=O)[C@H]1CC[C@H]2[C@@H]3C=CC4=CC(=O)CC[C@@]4(C)[C@@H]3CC[C@]12C [Dydrogesterone]	–	41.7%
> 45.8 µM	29.1 µM	C=C1CC[C@H](O)C/C1=C/C=C1\CCC[C@]2(C)[C@@H]([C@H](C)/C=C/[C@H](C)C(C)C)CC[C@@H]12 [ERGOCALCIFEROL]	–	56.2%
18.3 µM	18.3 µM	Cc1cc(-c2ccc(/N=N/c3ccc4c(S(=O)(=O)O)cc(S(=O)(=O)O)c(N)c4c3O)c(C)c2)ccc1/N=N/c1ccc2c(S(=O)(=O)O)cc(S(=O)(=O)O)c(N)c2c1O [EVANS BLUE]	95.6%	87.8%
29.1 µM	23.1 µM	CC(C)(C)c1ccc(C(=O)CCCN2CCC(OC(c3ccccc3)c3ccccc3)CC2)cc1 [Ebastine]	115%	112%
> 45.8 µM	29.1 µM	CCCCCCCC(=O)N[C@H](CN1CCCC1)[C@H](O)c1ccc2c(c1)OCCO2 [Eliglustat (Tartrate)]	–	44.2%
0.0651 µM	0.164 µM	C=C1C[C@@H]2CC[C@@]34C[C@H]5O[C@H]6[C@@H](O3)[C@H]3O[C@H](CC[C@@H]3O[C@H]6[C@H]5O4)CC(=O)C[C@@H]3[C@@H](OC)[C@@H](C[C@H](O)CN)O[C@H]3C[C@H]3O[C@@H](CC[C@@H]1O2)C[C@@H](C)C3=C [Eribulin mesylate]	90.6%	77.5%
> 45.8 µM	20.6 µM	CCCCC(=O)O[C@H]1CC[C@H]2[C@@H]3CCc4cc(O)ccc4[C@H]3CC[C@]12C [Estradiol valerate]	–	49.3%
18.3 µM	29.1 µM	C[C@]12CC[C@@H]3c4ccc(O)cc4CC[C@H]3[C@@H]1CC[C@@H]2O [Estradiol]	49.5%	51.8%
> 45.8 µM	20.6 µM	C#C[C@]1(O)CC[C@H]2[C@@H]3CCc4cc(O)ccc4[C@H]3CC[C@@]21C [Ethinylestradiol]	–	41.1%
0.0259 µM	0.0231 µM	CC[C@@]1(O)C(=O)OCc2c1cc1n(c2=O)Cc2c-1nc1cc(F)c(C)c3c1c2[C@@H](N)CC3 [Exatecan]	60%	48.8%
29.1 µM	23.1 µM	C=C1/C(=C\C=C2/CCC[C@]3(C)[C@@H]([C@H](C)CCCC(O)(C(F)(F)F)C(F)(F)F)CC[C@@H]23)C[C@@H](O)C[C@@H]1O [Falecalcitriol]	68.9%	96.5%
18.3 µM	18.3 µM	CCOC(=O)C1=C(C)NC(C)=C(C(=O)OC)C1c1cccc(Cl)c1Cl (stereo not given) [Felodipine]	47.4%	52%
29.1 µM	20.6 µM	CCCCCCCCc1ccc(CCC(N)(CO)CO)cc1 [Fingolimod hydrochloride]	108%	100%
20.6 µM	18.3 µM	Fc1ccc(C(c2ccc(F)cc2)N2CCN(C/C=C/c3ccccc3)CC2)cc1 [Flunarizine]	109%	80%
18.3 µM	18.3 µM	CN1CCN(CCCN2c3ccccc3Sc3ccc(C(F)(F)F)cc32)CC1 [Fluoperazine dihydrochloride]	92.3%	94.5%
10.3 µM	20.6 µM	O=c1[nH]cc(F)c(=O)[nH]1 [Fluorouracil]	59.5%	55.4%

Continued, compound first:

Structure (SMILES)	IC50 cell viability ([1]; ICRF193 0 nM)	IC50 cell viability ([1]; ICRF193 200 nM)	efficacy ([2]; ICRF193 0 nM)	efficacy ([2]; ICRF193 200 nM)
CCCCCCCCCCCC[N+](C)(C)CCOc1ccccc1 [Domiphen bromide]	10.3 µM	8.2 µM	101%	90.4%
Oc1ccc(CCNCCCCCCNCCc2ccccc2)cc1O [Dopexamine]	> 45.8 µM	18.3 µM	–	47.3%
C=C1/C(=C\C=C2/CCC[C@]3(C)[C@@H]([C@H](C)/C=C/[C@H](C)C(C)C)CC[C@@H]23)C[C@@H](O)C[C@@H]1O [Doxercalciferol]	29.1 µM	29.1 µM	101%	102%
CC[C@H]1CN2CCc3cc(OC)c(OC)cc3[C@@H]2C[C@@H]1C[C@H]1NCCc2cc(OC)c(OC)cc21 [EMETINE DIHYDROCHLORIDE]	0.146 µM	0.13 µM	70.8%	76.6%
CC(C)c1cc2c(cc1S(=O)(=O)O)[C@@]1(C)CCC[C@@](C)(C(=O)O)[C@@H]1CC2 [Ecabet]	> 45.8 µM	0.103 µM	–	63.3%
Clc1ccc(COC(Cn2ccnc2)c2ccc(Cl)cc2Cl)cc1 (stereo not given) [Econazole nitrate]	20.6 µM	20.6 µM	90.3%	96%
O=C1Nc2ccc(Cl)cc2[C@@](C#CC2CC2)(C(F)(F)F)O1 [Efavirenz]	20.6 µM	25.9 µM	56.7%	44.6%
CC1=C(C(=O)OCCN(Cc2ccccc2)c2ccccc2)C(c2cccc([N+](=O)[O-])c2)C(P2(=O)OCC(C)(C)CO2)=C(C)N1 (stereo not given) [Efonidipine hydrochloride monoethanolate]	16.4 µM	> 45.8 µM	41.1%	–
CC1=NN(c2ccc(C)c(C)c2)C(=O)/C1=N\Nc1cccc(-c2cccc(C(=O)O)c2)c1O [Eltrombopag olamine]	6.51 µM	> 45.8 µM	41.9%	–
COc1cc2c(cc1Cc1cccc(Cl)c1F)c(=O)c(C(=O)O)cn2[C@H](CO)C(C)C [Elvitegravir]	18.3 µM	20.6 µM	71.8%	83%
CNC(=O)c1ccc(N2C(=S)N(c3ccc(C#N)c(C(F)(F)F)c3)C(=O)C2(C)C)cc1F [Enzalutamide]	> 45.8 µM	20.6 µM	–	45.8%
COc1cccc2c1C(=O)c1c(O)c3c(c(O)c1C2=O)C[C@@](O)(C(=O)CO)C[C@@H]3O[C@H]1C[C@H](N)[C@@H](O)[C@H](C)O1 [Epirubicin hydrochloride]	0.73 µM	1.46 µM	91.9%	73.8%
C/C(=C\c1csc(C)n1)[C@@H]1C[C@@H]2O[C@]2(C)CCC[C@H](C)[C@H](O)[C@@H](C)C(=O)C(C)(C)[C@@H](O)CC(=O)O1 [Epothilone B]	0.00517 µM	0.0073 µM	66%	45.8%
CN1C[C@H](C(=O)N[C@]2(C)O[C@@]3(O)[C@@H]4CCCN4C(=O)[C@H](Cc4ccccc4)N3C2=O)C=C2c3cccc4[nH]cc(c34)C[C@H]21 [Ergotamine tartrate]	> 45.8 µM	18.3 µM	–	70.8%
C#Cc1cccc(Nc2ncnc3cc(OCCOC)c(OCCOC)cc23)c1 [Erlotinib]	> 45.8 µM	14.6 µM	–	50.4%
CCOc1ccc2nc3cc(N)ccc3c(N)c2c1 [Ethacridine lactate hydrate]	18.3 µM	29.1 µM	54.4%	50.6%
CCOc1ccc(Cc2nccc3cc(OCC)c(OCC)cc23)cc1OCC [Ethaverine hydrochloride]	6.51 µM	> 45.8 µM	61.3%	–
C#C[C@]1(OC(C)=O)CC[C@H]2[C@@H]3CCC4=C[C@@H](OC(C)=O)CC[C@@H]4[C@H]3CC[C@@]21C [Ethynodiol diacetate]	> 45.8 µM	23.1 µM	–	47.1%
COc1cc([C@@H]2c3cc4c(cc3[C@@H](O[C@@H]3O[C@@H]5CO[C@@H](C)O[C@H]5[C@H](O)[C@H]3O)[C@H]3COC(=O)[C@H]23)OCO4)cc(OC)c1OP(=O)(O)O [Etoposide  Phosphate]	0.517 µM	0.366 µM	60.8%	79.9%
COc1cc([C@@H]2c3cc4c(cc3[C@@H](O[C@@H]3O[C@@H]5CO[C@@H](C)O[C@H]5[C@H](O)[C@H]3O)[C@H]3COC(=O)[C@H]23)OCO4)cc(OC)c1O [Etoposide]	29.1 µM	2.91 µM	66.7%	99.1%
Cc1cc(C#N)cc(C)c1Oc1nc(Nc2ccc(C#N)cc2)nc(N)c1Br [Etravirine]	29.1 µM	29.1 µM	49%	54.9%
C=CC[C@@H]1/C=C(\C)C[C@H](C)C[C@H](OC)[C@H]2O[C@@](O)(C(=O)C(=O)N3CCCC[C@H]3C(=O)O[C@H](/C(C)=C/[C@@H]3CC[C@@H](O)[C@H](OC)C3)[C@H](C)[C@@H](O)CC1=O)[C@H](C)C[C@@H]2OC [FK-506]	6.51 µM	4.61 µM	78.2%	45.5%
CCc1c(Cl)c(O)c(Cl)c(O)c1C(=O)O[C@H]1[C@H](O)[C@H](OC)[C@H](OC/C2=C\C=C\C[C@H](O)/C(C)=C/[C@H](CC)[C@@H](O[C@@H]3OC(C)(C)[C@@H](OC(=O)C(C)C)[C@H](O)[C@@H]3O)/C(C)=C/C(C)=C/C[C@@H]([C@@H](C)O)OC2=O)O[C@@H]1C [Fidaxomicin]	20.6 µM	20.6 µM	103%	53.2%
N#Cc1c(N2C[C@@H]3NCCO[C@H]3C2)c(F)cc2c(=O)c(C(=O)O)cn(C3CC3)c12 [Finafloxacin]	> 45.8 µM	18.3 µM	–	72.2%
O=c1[nH]c(=O)n([C@H]2C[C@H](O)[C@@H](CO)O2)cc1F [Floxuridine]	2.91 µM	1.16 µM	49.1%	43%
CCCCCCCCCC(=O)OCCN1CCN(CCCN2c3ccccc3Sc3ccc(C(F)(F)F)cc32)CC1 [Fluphenazine decanoate dihydrochloride]	20.6 µM	20.6 µM	81%	99.6%
OCCN1CCN(CCCN2c3ccccc3Sc3ccc(C(F)(F)F)cc32)CC1 [Fluphenazine hydrochloride]	29.1 µM	20.6 µM	110%	104%
